Reference: patent publication US20170266147A1, “METHODS OF INCREASING LATENCY OF ANESTHETIC INDUCTION USING KETONE SUPPLEMENTATION” (priority 2016, published 2017)

How the values were obtained:
Sprague-Dawley rats = assay: Time until anesthetic induction (isoflurane) in Sprague-Dawley rats; type: in vivo, rat; conditions: 7 days feeding/oral gavage, relative to standard diet fed controls, p=1.32E−6 (ketone diet), p=0.336 (ketone salt), FIG. 1
Procedure: (§1) Animals were kept in pairs of 2 rats under standard laboratory conditions (12 h:12 h light-dark cycle) in climate-controlled rooms at 22.0±2.0° C. Animal treatment and measuring procedures were performed in accordance with the University of South Florida Institutional Animal Care and Use Committee (IACUC) guidelines (Protocol#00001749). All efforts were made to reduce the number of animals used.
(§2) All data are presented as the mean±standard error of the mean (SEM). The effects of compositions comprising ketone supplements on latency to anesthetic induction, as well as on blood βHB levels, were compared to control and/or baseline levels. Data analysis was performed using GRAPHPAD PRISM® v6.0a. Results were considered significant when *p<0.05, **p<0.005, ***p<0.0005. Significance was determined by unpaired t-test.
(§3) Sprague-Dawley rats were fed a standard diet, a ketone diet, or a standard diet supplemented with an oral gavage of the ketone salt βHB mineral salt for 7 days. After 7 days, anesthesia was induced in an anesthesia chamber with isoflurane gas mixed with air, and the time until anesthetic induction was measured by a blinded observer.

[1] = Blood levels of βHB after anesthetic induction in Sprague-Dawley rats; type: in vivo, rat; conditions: 7 days, relative to baseline levels, p=0.0001 (ketone diet), p=2.21E−05 (ketone salt), FIG. 2
Procedure: as §2, §3

[2] = test system: glucose transporter type 1-deficiency (G1D) syndrome mouse model; assay: Time until anesthetic induction (isoflurane) in G1D mice; type: in vivo; conditions: for time required before anesthetic induction: relative to control mice fed a standard diet, p=0.0003 (KD), p=0.0136 (KS), p=0.0003 (KE), FIG. 4
Procedure: as §1, with “groups” for “pairs”, “2-5 mice” for “2 rats”, “(Protocol#00000457).” for “(Protocol#00001749).”, “used. The rodents were put under anesthesia once a week to perform blood draws.” for “used.”
as §2, with “PRISM” for “PRISM®”
G1D mice between 3-5 months old were chronically fed a standard rodent chow diet (SD), ketogenic diet (KD) (Table 1), standard rodent chow diet mixed with 20% ketone salt (βHB mineral salt) supplementation (SD+KS), or standard diet mixed with 20% ketone ester (1,3 butanediol-acetoacetate diester) supplementation (SD+KE) for 10 weeks. After 10 weeks, anesthesia was induced in an anesthesia chamber with isoflurane gas mixed with air, and the time until anesthetic induction was measured by a blinded observer. Ketone body levels in the blood were measured immediately after induction of anesthesia with a PRECISION XTRA® blood glucose and ketone monitoring kit.

For βHB mineral salt [ketone salt], the “number of seconds required before anesthetic induction” value (Sprague-Dawley rats) was “significant increase”, the “blood levels of βHB after anesthetic induction” value [1] was “significant increase” and the “delay in anesthetic induction normalized to body weight” value ([2]; 10 weeks, relative to animals fed a standard diet, p=0.0048 (KD), p=0.0338 (KS), FIG. 5) was “remained significant”. For the same molecule, the “time required before anesthetic induction” value ([2]; 10 weeks) was “significant increases”.

With `CC(=O)CC(=O)OCCC(C)OC(=O)CC(C)=O` (stereo not drawn) [ketone ester, 1,3 butanediol-acetoacetate diester] the “time required before anesthetic induction” value ([2]; 10 weeks) was “significant increases” and the “number of seconds required before anesthetic induction” value ([2]; chronic 10 weeks, 20% in standard diet, relative to baseline levels, p=0.0035, FIG. 3) was “significant increase”.
